Test results published in US7772252B2, “Heterocyclic substituted carbonyl derivatives and their use as dopamine D3 receptor ligands” (Aventis Pharmaceuticals Inc., priority 2001, dated 2010).

Biological target: T1, cloned human alpha-1A adrenergic receptors (α1a) (Homo sapiens, UniProt P35348)
T1 construct: expressed in transfected cells; membranes
T1 sequence (P35348 1-466): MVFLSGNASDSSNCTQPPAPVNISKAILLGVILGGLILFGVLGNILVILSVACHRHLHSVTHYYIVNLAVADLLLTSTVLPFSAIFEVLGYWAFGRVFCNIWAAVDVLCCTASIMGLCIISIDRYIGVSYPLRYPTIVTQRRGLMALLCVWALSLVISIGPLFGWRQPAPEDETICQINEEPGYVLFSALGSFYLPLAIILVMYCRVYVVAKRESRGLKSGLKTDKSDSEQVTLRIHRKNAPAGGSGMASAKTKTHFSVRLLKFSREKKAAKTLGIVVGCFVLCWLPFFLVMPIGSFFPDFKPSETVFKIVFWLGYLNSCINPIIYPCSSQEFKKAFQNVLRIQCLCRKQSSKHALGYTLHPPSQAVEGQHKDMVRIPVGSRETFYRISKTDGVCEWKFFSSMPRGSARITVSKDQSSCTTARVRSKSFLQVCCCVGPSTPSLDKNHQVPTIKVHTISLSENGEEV
Test: [3H]Prazosin binding to cloned human alpha-1A adrenergic receptors expressed in CHO cells
Conditions: read-out: halpha1Ki (nM) h = human
Text: ^3H]Prazosin Binding to Cloned Human Alpha-1A Adrenergic Receptors (α1a) Expressed in Chinese Hamster Ovary Cells (CHO)
• Purpose: This in vitro assay is designed as a screen to identify compounds displaying a affinity for the human α1a adrenoceptor subtype expressed in the membrane fragments of CHO cells. The assay measures the ability of the test compounds to displace [^3H] prazosin from α1a sites. • The identification of multiple vascular α1-addrenoceptors (α1a, α1b, α1d) in vitro has provided impetus to define the role(s) of these subtypes in cardiovascular regulation in vivo (Vargas and Gorman, 1995). […] Prazosin is a potent antagonist of the human α1a-adrenoceptor subtype, which has been cloned and is expressed in the membrane fragments of CHO cells. • hα1a receptor: The cloning of the human α1a cDNA was accomplished first by screening a human prostate cDNA library (Clontech), from which a portion of the coding region was obtained. This DNA fragment was then used to screen a human leukocyte genomic library (Clontech), and the rest of the coding sequence was obtained. Later these two fragments were spliced together. The entire coding sequence was then fully sequenced including matching PCR sequence with original genomic coding sequence, thus ensuring splice sites were joined correctly (Schwinn et al., 1995). Once sequenced, the gene was subcloned into the expression vector pcDNA3 (Invitrogen). Plasmid DNA was then used for transfection into CHO cells and G418 resistant clones were isolated. A clone expressing high levels of the hα1a receptor (as determined by mRNA and receptor binding data) was chosen and pharmacologically characterized. • Culture Media Ingredients for Adherent α1a expressing CHO Culture: • A. HAM's F-12 (Celigro) • B. 10% 0.2 micron filtered Fetal Bovine Serum (FBS)(Celigro) • C. 1% 0.2 micron filtered Penicillin-Streptomycin (Celigro) • D. G418 0.2 micron filtered (Geneticin 400 μg/ml)(Celigro) • Cells are cultured using established methods and procedures in either 150×25 mm culture plates (scale up to 100 plates) or a combination of these plates and 70 roller bottles. One culturing/harvest cycle typically requires 2 weeks and yields between 100-400 mg protein. Plates or bottles are incubated at 37° C.+5% CO2. • Storage: Cells are harvested by mechanical scraping, washed using PBS, collected in 250 ml Corning polypropylene centrifuge tubes, spun down (1500 RPM) and resuspended in dH2O 10% DMSO (final volume per harvest is approximately 50 ml). Protein determination is made using the Biorad DC Assay Kit. Finally, the appropriate volume is aliquoted into a 2 ml Corning Cryovial (10 mg/1-1.5 ml) which is stored at −80° C.
• Assay Requirement: 0.5 cryovials per 96 well plate (assay volume=200 μl/well) • [^3H]-Ligand: [7-methoxy-^3H]-Prazosin: 1.0 nM (NEN, NET-823) • 70-87 Ci/mmol • Materials: Phentolamine mesylate (Research Biochemicals Int. #P-131) • 96 well flat bottom plates (Beckman) • Unifilter GF/B Plate (Packard) • Polyethylenimine (Sigma #P-3134) • TomTec or Packard Filtermate 196 Cell Harvesters • Packard TopCount Scintillation Counter • Buffers: A: 50 mM Tris HCl; 0.1% ascorbate, pH 7.7 (incubation buffer) • B: 50 mM Tris HCl; pH 7.7 (wash buffer) • Procedure: Assay additions are as follows (in the order indicated): • Total Binding=50 μl buffer A+50 μl [^3H]prazosin+100 μl membrane • Nonsp. Bd.=50 μl 10 μM phentolamine+50 μl [^3H]prazosin+100 μl membrane • Test Cpd.=50 μl compound+50 μl [^3H]prazosin+100 μl membrane • Compounds to be evaluated are weighed out to yield a 10 mM stock solution in DMSO in a 24 well polystyrene plate. This is diluted to a 0.5 mM stock in dH2O, Serial dilutions in Buffer A are made from which 50 μl additions to the plate are made in duplicate in order to achieve the final concentrations desired. Typically, one 96 well plate is used to evaluate 11 compounds at 4 concentrations (10^−6-10^−9 M) in duplicate. Total binding and nonspecific binding are determined in quadruplicate. […]

Row | SMILES | Ki [nM]
1 | CN(C)C1CCN(C(=O)CCCN2CCN(c3csc4cc(F)ccc34)CC2)C1 (centres unmarked) [compound 826863] | 32.2
2 | CC1(C)CCCN(C(=O)CCCN2CCN(c3csc4cc(F)ccc34)CC2)C1 (racemic) [compound 826857] | 9.82
